Results published in ChEMBL document CHEMBL4813962, “Design, synthesis and biological evaluation of sulfamoylphenyl-quinazoline derivatives as potential EGFR/CAIX dual inhibitors” (Eur J Med Chem, 2021).

Tests used:
Assay type in all cases: functional, cell-based
A-431 = assay: cells; details: Homo sapiens, A-431, 72 h
Description: Antiproliferative activity against human A-431 cells assessed as reduction in cell viability incubated for 72 hrs by MTT assay

A549 = assay: cells; details: Homo sapiens, A549, 72 h;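 also: antiproliferative effect read out as loss of cell viability by MTT assay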
NCI-H1975 = assay: Antiproliferative activity against human NCI-H1975 cells assessed as reduction in cell viability incubated for 72 hrs by MTT assay; details: NCI-H1975, 72 h

| SMILES | IC50 (A-431) [µM] | IC50 (A549) [µM] | IC50 (NCI-H1975) [µM] |
| --- | --- | --- | --- |
| COc1cc2ncnc(Nc3cccc(C)c3)c2cc1OCCCCC(=O)Nc1ccc(S(N)(=O)=O)cc1 | 7.46 | 16 | 32.1 |
| NS(=O)(=O)c1ccc(CCNC(=S)Nc2ccc3ncnc(Nc4ccc(Cl)c(C(F)(F)F)c4)c3c2)cc1 | 21.2 | 30.4 | 39.5 |
| COc1cc2ncnc(Nc3ccc(F)c(Br)c3)c2cc1OCCCCC(=O)Nc1ccc(S(N)(=O)=O)cc1 | 8.02 | 16 | 31.6 |
| CCc1ccc(Nc2ncnc3cc(OC)c(OCCCCC(=O)Nc4ccc(S(N)(=O)=O)cc4)cc23)cc1 | 7.22 | 12.1 | 10.3 |
| NS(=O)(=O)c1ccc(NC(=S)Nc2ccc3ncnc(Nc4ccc(Cl)c(C(F)(F)F)c4)c3c2)cc1 | 18.2 | 4.5 | 11.8 |
| CCc1ccc(Nc2ncnc3ccc(NC(=S)Nc4ccc(S(N)(=O)=O)cc4)cc23)cc1 | 38.4 | 24.6 | 38.7 |
| Cc1ccc(Nc2ncnc3ccc(NC(=S)Nc4ccc(S(N)(=O)=O)cc4)cc23)cc1 | 40 | 2.84 | 39.4 |
| Cc1ccc(Nc2ncnc3ccc(NC(=S)NCCc4ccc(S(N)(=O)=O)cc4)cc23)cc1 | 13.1 | 14.7 | 10.2 |
| Cc1cccc(Nc2ncnc3ccc(NC(=S)Nc4ccc(S(N)(=O)=O)cc4)cc23)c1 | 23.8 | > 40 | 35.4 |
| COc1ccccc1Nc1ncnc2cc(OC)c(OCCCCC(=O)Nc3ccc(S(N)(=O)=O)cc3)cc12 | 24.2 | 24.1 | 8.03 |
| COc1cc2ncnc(Nc3ccc(C)cc3)c2cc1OCCCCC(=O)Nc1ccc(S(N)(=O)=O)cc1 | 35.5 | > 40 | 19.2 |
| COc1cc2ncnc(Nc3ccc(F)cc3)c2cc1OCCCCC(=O)Nc1ccc(S(N)(=O)=O)cc1 | 18.6 | > 40 | > 40 |
| COc1cc2ncnc(Nc3cccc(Cl)c3)c2cc1OCCCCC(=O)Nc1ccc(S(N)(=O)=O)cc1 | 30.4 | 11.2 | 33.2 |
| NS(=O)(=O)c1ccc(CCNC(=S)Nc2ccc3ncnc(Nc4cccc(F)c4)c3c2)cc1 | 9.94 | 5.51 | 35.7 |
| COc1cc2ncnc(Nc3cc(F)c(F)c(F)c3)c2cc1OCCCCC(=O)Nc1ccc(S(N)(=O)=O)cc1 | 23.4 | > 40 | 20 |
| NS(=O)(=O)c1ccc(CCNC(=S)Nc2ccc3ncnc(Nc4cccc(Cl)c4)c3c2)cc1 | 14.8 | 2.77 | 11 |
| COc1cc2ncnc(Nc3ccc(OC(F)(F)F)cc3)c2cc1OCCCCC(=O)Nc1ccc(S(N)(=O)=O)cc1 | 22.4 | > 40 | 8.77 |
| NS(=O)(=O)c1ccc(NC(=S)Nc2ccc3ncnc(Nc4cccc(F)c4)c3c2)cc1 | 30.1 | 25.9 | 9.66 |
| NS(=O)(=O)c1ccc(NC(=S)Nc2ccc3ncnc(Nc4cccc(Cl)c4)c3c2)cc1 | 15 | > 40 | 39.8 |
| NS(=O)(=O)c1ccc(CCNC(=S)Nc2ccc3ncnc(Nc4cccc(Br)c4)c3c2)cc1 | 17.3 | 9.36 | 10.8 |
| CCc1ccc(Nc2ncnc3ccc(NC(=S)NCCc4ccc(S(N)(=O)=O)cc4)cc23)cc1 | 39.6 | 16.6 | 9.36 |
| NS(=O)(=O)c1ccc(NC(=S)Nc2ccc3ncnc(Nc4cccc(Cl)c4F)c3c2)cc1 | 13.1 | > 40 | 25.1 |

| SMILES | IC50 (A-431) [µM] | IC50 (A549) [µM] | IC50 (NCI-H1975) [µM] |
| --- | --- | --- | --- |
| NS(=O)(=O)c1ccc(CCNC(=S)Nc2ccc3ncnc(Nc4cccc(Cl)c4F)c3c2)cc1 | 4.21 | 4.53 | 13 |
| NS(=O)(=O)c1ccc(NC(=S)Nc2ccc3ncnc(Nc4ccc(F)c(Br)c4)c3c2)cc1 | 18.2 | > 40 | 9.98 |
| COc1cc2ncnc(Nc3ccc(Cl)cc3)c2cc1OCCCCC(=O)Nc1ccc(S(N)(=O)=O)cc1 | 7.12 | > 40 | 31.8 |
| Cc1cccc(Nc2ncnc3ccc(NC(=S)NCCc4ccc(S(N)(=O)=O)cc4)cc23)c1 | 16 | 7.05 | 20.8 |
| NS(=O)(=O)c1ccc(NC(=S)Nc2ccc3ncnc(Nc4ccc(F)c(Cl)c4)c3c2)cc1 | 37.6 | > 40 | 15.8 |
| COc1cc2ncnc(Nc3cccc(F)c3)c2cc1OCCCCC(=O)Nc1ccc(S(N)(=O)=O)cc1 | 29.9 | > 40 | > 40 |
| NS(=O)(=O)c1ccc(CCNC(=S)Nc2ccc3ncnc(Nc4ccc(C(F)(F)F)cc4)c3c2)cc1 | 26.7 | 32.4 | 13 |
| COc1cc2ncnc(Nc3ccccc3)c2cc1OCCCCC(=O)Nc1ccc(S(N)(=O)=O)cc1 | 25.2 | > 40 | 14.1 |
| NS(=O)(=O)c1ccc(NC(=S)Nc2ccc3ncnc(Nc4ccc(C(F)(F)F)cc4)c3c2)cc1 | 18 | > 40 | 17.1 |
| C#Cc1cccc(Nc2ncnc3ccc(NC(=S)Nc4ccc(S(N)(=O)=O)cc4)cc23)c1 | 15.3 | > 40 | 13.4 |
| NS(=O)(=O)c1ccc(CCNC(=S)Nc2ccc3ncnc(Nc4ccc(F)c(Cl)c4)c3c2)cc1 | 16.7 | 4.18 | 11.4 |
| C#Cc1cccc(Nc2ncnc3ccc(NC(=S)NCCc4ccc(S(N)(=O)=O)cc4)cc23)c1 | 12.5 | 3.87 | 12.7 |
| COc1cc2ncnc(Nc3ccc(Br)cc3)c2cc1OCCCCC(=O)Nc1ccc(S(N)(=O)=O)cc1 | 6.57 | > 40 | 23.3 |
| NS(=O)(=O)c1ccc(CCNC(=S)Nc2ccc3ncnc(Nc4ccc(F)c(Br)c4)c3c2)cc1 | 21.1 | 5.4 | 9.43 |
| COc1ccc(Nc2ncnc3cc(OC)c(OCCCCC(=O)Nc4ccc(S(N)(=O)=O)cc4)cc23)cc1OC | 35.4 | > 40 | 9.23 |
| C#Cc1cccc(Nc2ncnc3cc(OCCOC)c(OCCOC)cc23)c1 [ERLOTINIB] | 11.8 | 16.4 | 13.1 |
| COc1cc2ncnc(Nc3ccc(C(F)(F)F)cc3)c2cc1OCCCCC(=O)Nc1ccc(S(N)(=O)=O)cc1 | 16.9 | 14.8 | 12 |
| NS(=O)(=O)c1ccc(NC(=S)Nc2ccc3ncnc(Nc4cccc(Br)c4)c3c2)cc1 | 20.7 | 25 | 11 |
| NS(=O)(=O)c1ccc(NC(=S)Nc2ccc3ncnc(Nc4ccc(OCc5cccc(F)c5)c(Cl)c4)c3c2)cc1 | 29.5 | > 40 | 10.3 |
| COc1ccc(Nc2ncnc3cc(OC)c(OCCCCC(=O)Nc4ccc(S(N)(=O)=O)cc4)cc23)cc1 | 14.7 | > 40 | 30.2 |
| COc1cc2ncnc(Nc3cccc(Br)c3)c2cc1OCCCCC(=O)Nc1ccc(S(N)(=O)=O)cc1 | 9.75 | 14.9 | 11.4 |
